The values that follow come from patent US9630947B2, “Therapeutic compounds and related methods of use” (OTSUKA PHARMACEUTICAL CO., LTD., priority 2009, dated 2017).

A value given as a limit tells only on which side of the number the result lay.

One may read the IC50 as the midpoint of a concentration-inhibition curve.

The test addresses T1, purified STEP46 enzyme (Homo sapiens, UniProt P54829).
T1 sequence (P54829 1-565): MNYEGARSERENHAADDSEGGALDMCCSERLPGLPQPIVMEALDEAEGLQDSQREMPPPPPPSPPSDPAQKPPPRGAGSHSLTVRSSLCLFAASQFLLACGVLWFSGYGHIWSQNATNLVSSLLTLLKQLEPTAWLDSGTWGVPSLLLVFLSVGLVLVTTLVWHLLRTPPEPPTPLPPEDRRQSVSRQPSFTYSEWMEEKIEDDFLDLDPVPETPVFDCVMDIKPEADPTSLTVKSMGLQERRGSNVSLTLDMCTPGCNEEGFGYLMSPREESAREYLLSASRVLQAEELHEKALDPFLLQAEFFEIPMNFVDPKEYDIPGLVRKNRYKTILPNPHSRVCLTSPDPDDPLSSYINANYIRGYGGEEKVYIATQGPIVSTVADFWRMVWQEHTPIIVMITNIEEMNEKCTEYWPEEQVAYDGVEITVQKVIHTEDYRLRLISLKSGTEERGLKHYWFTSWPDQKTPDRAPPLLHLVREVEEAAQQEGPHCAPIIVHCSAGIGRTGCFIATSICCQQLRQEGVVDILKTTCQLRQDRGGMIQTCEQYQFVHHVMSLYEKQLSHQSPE
Put plainly: STEP46 biochemical assay (DiFMUP fluorescence phosphatase assay). Particulars: DiFMUP 10 μM, read-out: STEP IC50. How it is done:
STEP46 Biochemical Assays
Serial dilutions of compounds were performed in 100% DMSO and 1 uL of compounds were dispensed into 384-well black polystyrene plates (Corning, NY). Compounds were incubated with 24 uL of buffer containing 50 mM Hepes, 1 mM DTT, 0.02% Brij35, 1 ng/well purified STEP46 enzyme for 30 min at room temperature. The reaction was initiated by addition of 25 uL of DiFMUP (6, 8-difluoro-4-methylumbelliferyl phosphate) (InVitrogen, CA) with a final concentration of 10 μM and incubated at 27° C. for 90 min. Final DMSO concentration is 2%. Plates were read with florescence intensity at excitation/emission of 360/460 nm using a PheraStar plate reader (BMG Labtech, NC).
Data were expressed as percentage (%) inhibition of enzyme activity. 0% inhibition is defined as the RFUs (relative fluorescence units) in the absence of compounds and 100% inhibition is defined as RFUs in the absence of STEP46 enzyme. IC50 values of compounds with inhibitory activity against STEP46 were determined by GraphPad Prism (version 4.03) using four parameter logistic equation. Some compounds act as activators. For compounds showing STEP46 enzymatic activation, data are represented as percentage of inhibition but with negative values at three representative concentrations (25, 50 and 100 uM).
As for `N#Cc1cccc(Nc2nc(-c3ccnnc3)nc3cc(Cl)ccc23)c1` [Compound 1203], the IC50 lay in the range of 1000 to 10000 nM.
Regarding `N#Cc1ccccc1-c1ccc2c(Nc3ccc(F)c(Cl)c3)nc(-c3cccnc3)nc2c1` [Compound 685], the IC50 is less than 1000 nM.
The figure for `Fc1ccc(Nc2nc(-c3cccnc3)nc3ccc(-c4cncnc4)cc23)cc1Cl` [Compound 652] is less than 1000 nM; for `COc1ccc2nc(-c3cccnc3)nc(Nc3ccccc3C(=O)NCc3cccs3)c2c1` [Compound 884] it is greater than 10000 nM.
With `Fc1ccc(Nc2nc(-c3cnccn3)nc3ccc(Cl)cc23)cc1Cl` [Compound 1159], the IC50 lay in the range of 1000 to 10000 nM.
With `CNc1nc(-c2cccnc2)nc2cc(-c3ccccc3F)ccc12` [Compound 1358], the IC50 fell in the range of 1000 to 10000 nM.
As for `NC(=O)c1ccccc1Nc1nc(-c2cccnc2)nc2cc(-c3cccc(F)c3F)ccc12` [Compound 705], the IC50 was less than 1000 nM.
On to `COc1ccc2nc(-c3cccnc3)nc(Nc3cc(-c4ccc(Cl)cc4)nn3C)c2c1` [Compound 403], for which the IC50 was in the range of 1000 to 10000 nM.
`CNc1nc(-c2cccnc2)nc2cc(-c3cccc(C#N)c3)ccc12` [Compound 1364]: the IC50 lay in the range of 1000 to 10000 nM.
Regarding `COc1ccc2nc(-c3ccnnc3)nc(Nc3ccc(F)c(Cl)c3)c2c1` [Compound 1185], the IC50 was in the range of 1000 to 10000 nM.
With `COc1ccc2nc(-c3cccnc3)nc(Nc3ccc4sc(=O)n(C)c4c3)c2c1` [Compound 327] the figure was 1000 to 10000 nM; with `COc1ccc2nc(-c3cccnc3)nc(Nc3cccc4c3OC(F)(F)C(F)(F)O4)c2c1` [Compound 342], 1000 to 10000 nM.
Take `CNc1nc(-c2cncnc2)nc2ccc(-c3cccc(F)c3F)cc12` [Compound 1239]: the IC50 was in the range of 1000 to 10000 nM.
With `CNc1nc(-c2cccnc2)nc2cc(-c3ccc(F)cc3F)ccc12` [Compound 1372], the IC50 is 1000 to 10000 nM.
In the case of `CCOc1ccc2nc(-c3cccnc3)nc(Nc3nc(-c4cc(F)ccc4F)cs3)c2c1` [Compound 471], the half-maximal inhibitory concentration (IC50) lay within 1000 to 10000 nM.
In the case of `COc1ccc2nc(-c3cccnc3)nc(Nc3ccc4ccc(=O)[nH]c4c3C)c2c1` [Compound 343], the IC50 was greater than 10000 nM.
For `NC(=O)c1cccc(-c2ccc3c(Nc4ccc(F)c(Cl)c4)nc(-c4cccnc4)nc3c2)c1` [Compound 691], the half-inhibitory concentration (IC50) is less than 1000 nM.
The figure for `COc1ccc2nc(-c3cccnc3)nc(Nc3ccc4c(c3)OC(F)(F)C(F)(F)O4)c2c1` [Compound 322] is greater than 10000 nM; for `CCOc1ccc2nc(-c3cncnc3)nc(Nc3ccccc3C(N)=O)c2c1` [Compound 1171] it is 1000 to 10000 nM; for `COc1ncc(-c2ccc3nc(-c4cccnc4)nc(Nc4ccc(F)c(Cl)c4)c3c2)c(OC)n1` [Compound 653] it is less than 1000 nM.
For `FC(F)Oc1cc(Cl)cc(Nc2nc(-c3cccnc3)nc3ccccc23)c1` [Compound 1213], the IC50 is 1000 to 10000 nM.
Take `CNc1c(-c2ccc(C#N)cc2)ccc2nc(-c3cccnc3)nc(C)c12` [Compound 1424]: the IC50 is greater than 10000 nM.
The figure for `COc1ccc(-c2csc(Nc3nc(-c4cccnc4)nc4ccc(OC)cc34)n2)cc1` [Compound 435] is less than 1000 nM; for `Fc1ccc(-c2ccc3c(Nc4cccc(OC(F)(F)F)c4)nc(-c4cccnc4)nc3c2)cc1` [Compound 708] it is 1000 to 10000 nM.
Consider `CNc1nc(-c2cccnc2)nc2cc(-c3ccccc3F)c(C)cc12` [Compound 1403], for which the IC50 is greater than 10000 nM.
The figure for `Fc1ccc(-c2ccc3nc(-c4cccnc4)nc(Nc4ccc(F)c(Cl)c4)c3c2)cc1F` [Compound 672] is 1000 to 10000 nM; for `COc1cccc(-c2ccc3nc(-c4cccnc4)nc(Oc4ccc(F)c(Cl)c4)c3c2)c1` [Compound 390] it is 1000 to 10000 nM.
As to `CNc1nc(-c2cccnc2)nc2ccc(-c3cc(OC)cc(OC)c3)cc12` [Compound 1357], the half-maximal inhibitory concentration (IC50) is 1000 to 10000 nM.
With `Fc1ccc(Nc2nc(-c3cnccn3)nc3cc(Cl)ccc23)cc1F` [Compound 1142], the IC50 is 1000 to 10000 nM.
Regarding `CCOc1ccc2nc(-c3cccnc3)nc(Nc3nc(-c4ccccc4)cs3)c2c1` [Compound 473], the IC50 was in the range of 1000 to 10000 nM.
With `CNc1nc(-c2cccnc2)nc2ccc(-c3ccc(OC)cc3)c(C)c12` [Compound 1458], the IC50 is greater than 10000 nM.
The figure for `CNc1nc(-c2cccnc2)nc2ccc(-c3cc(F)c(F)cc3F)cc12` [Compound 1376] is 1000 to 10000 nM.
Consider `COc1ccc2nc(-c3cccnc3)nc(Nc3cccc(-c4ccc(Cl)cc4)c3)c2c1` [Compound 427], for which the half-inhibitory concentration (IC50) is 1000 to 10000 nM.
As for `Fc1ccc(Nc2nc(-c3cccnc3)nc3ccc(-c4ccc(Cl)cc4)cc23)cc1Cl` [Compound 630], the IC50 was 1000 to 10000 nM.
For `COc1ccc2nc(-c3cccnc3)nc(Nc3cccc4cc[nH]c34)c2c1` [Compound 300], the IC50 was greater than 10000 nM.
In the case of `NC(=O)c1ccccc1Nc1nc(-c2cccnc2)nc2cc(-c3cc(F)ccc3F)ccc12` [Compound 706], the IC50 was less than 1000 nM.
Regarding `COc1ccc(-c2ccc3c(Nc4ccc(F)c(Cl)c4)nc(-c4cccnc4)nc3c2)cc1` [Compound 680], the IC50 fell in the range of 1000 to 10000 nM.
On to `Clc1cc(Cl)cc(Nc2nc(-c3cnccn3)nc3cc(Cl)ccc23)c1` [Compound 1146], for which the IC50 was in the range of 1000 to 10000 nM.
In the case of `COc1ccc2nc(-c3cccnc3)nc(Nc3nc(-c4c(F)cccc4F)cs3)c2c1` [Compound 459], the IC50 was less than 1000 nM.
With `CNc1nc(-c2cccnc2)nc2cc(-c3cccc(F)c3F)ccc12` [Compound 1371] the figure was 1000 to 10000 nM; with `NC(=O)c1ccccc1Nc1nc(-c2cccnc2)nc2cc(-c3ccccc3F)ccc12` [Compound 702], less than 1000 nM; with `CNc1nc(-c2cccnc2)nc2cc(C)c(-c3ccc(F)cc3)cc12` [Compound 1414], 1000 to 10000 nM.
Consider `CNc1nc(-c2cccnc2)nc2cc(-c3cccc(C)c3)ccc12` [Compound 1361], for which the IC50 is greater than 10000 nM.
For `CNc1nc(-c2cccnc2)nc2c(C)c(-c3cc(F)cc(F)c3)ccc12` [Compound 1448], the IC50 was in the range of 1000 to 10000 nM.
Turning to `COc1ccc2nc(-c3cccnc3)nc(Nc3nc(-c4cccc(Br)c4)cs3)c2c1` [Compound 447], the IC50 lay within 1000 to 10000 nM.
In the case of `CNc1nc(-c2cccnc2)nc2c(C)cc(-c3cccc(F)c3)cc12` [Compound 1280], the half-maximal inhibitory concentration (IC50) lay within 1000 to 10000 nM.
As to `CNc1nc(-c2cccnc2)nc2cc(-c3ccc(C(C)=O)cc3)ccc12` [Compound 1351], the IC50 is 1000 to 10000 nM.
In the case of `COc1ccc2nc(-c3cccnc3)nc(Nc3cccc4c3OC(F)(F)O4)c2c1` [Compound 339], the half-maximal inhibitory concentration (IC50) is 1000 to 10000 nM.
For `CNc1nc(-c2cccnc2)nc2cc(-c3ccccc3OC)c(C)cc12` [Compound 1411], the IC50 was greater than 10000 nM.
The figure for `Clc1ccc2nc(-c3cnccn3)nc(Nc3ccc(Cl)c(Cl)c3)c2c1` [Compound 1160] is 1000 to 10000 nM; for `CNc1nc(-c2cccnc2)nc2ccc(-c3ccc(F)cc3F)cc12` [Compound 1611] it is 1000 to 10000 nM.
Regarding `COc1ccc2nc(-c3cccnc3)nc(Nc3nc(-c4ccc(OC(F)(F)F)cc4)cs3)c2c1` [Compound 442], the IC50 is less than 1000 nM.
Consider `NC(=O)c1ccc(-c2ccc3c(Nc4ccc(F)c(Cl)c4)nc(-c4cccnc4)nc3c2)cc1` [Compound 684], for which the IC50 was in the range of 1000 to 10000 nM.
For the molecule `COc1cccc(-c2ccc3nc(-c4cccnc4)nc(Oc4ccc(F)c(F)c4)c3c2)c1` [Compound 392], the IC50 was 1000 to 10000 nM.
In the case of `CNc1nc(-c2cccnc2)nc2cc(-c3cccc(F)c3)ccc12` [Compound 1359], the IC50 lay in the range of 1000 to 10000 nM.
Consider `CCOc1ccc2nc(-c3cccnc3)nc(Nc3nc(-c4ccc(F)cc4F)cs3)c2c1` [Compound 472], for which the IC50 lay within 1000 to 10000 nM.
`COc1ccc2nc(-c3cccnc3)nc(Nc3nc(-c4cccc(C#N)c4)cs3)c2c1` [Compound 453]: the IC50 was less than 1000 nM.
Turning to `COc1ccc2nc(-c3cccnc3)nc(Nc3nc(-c4cccc(Cl)c4)cs3)c2c1` [Compound 430], the IC50 was less than 1000 nM.
Consider `CCOc1ccc2nc(-c3cccnc3)nc(Nc3nc(-c4ccc(Cl)cc4)cs3)c2c1` [Compound 467], for which the half-inhibitory concentration (IC50) lay in the range of 1000 to 10000 nM.
For `NC(=O)c1ccccc1Nc1nc(-c2cnccn2)nc2ccc(Cl)cc12` [Compound 1157], the IC50 was 1000 to 10000 nM.
The figure for `CNc1nc(-c2cccnc2)nc2ccc(-c3ccc(F)cc3F)c(C)c12` [Compound 1286] is 1000 to 10000 nM; for `COc1ccc2nc(-c3cccnc3)nc(Nc3nc(-c4ccc(F)cc4)cs3)c2c1` [Compound 419] it is less than 1000 nM.
Take `Fc1ccc(Nc2nc(-c3cccnc3)nc3ccc(-c4ccccc4Cl)cc23)cc1Cl` [Compound 636]: the IC50 was greater than 10000 nM.
